Test results published in US20130303507A1 (Novartis AG, priority 2011, published 2013).
pIC50: −log10 of the molar value. Where “and” joins values, the source holds several entries; their conditions need not be identical. Equal values may be shown once.

These compounds were tested against Cdk9/cyclinT1 (Homo sapiens, UniProt P50750) (assay: Cdk9/cyclinT1 Alpha Screen protocol). Conditions: TFA salt; individual determinations; read-out: CDK9_cyclinT1_AS2_IC50.
Format: biochemical
Set-up: Full length wild type Cdk9/cyclin T1 is purchased from Invitrogen; purchased Invitrogen PV4131
Experimental: Cdk9/cyclinT1 Alpha Screen Protocol
Full length wild type Cdk9/cyclin T1 is purchased from Invitrogen, cat#PV4131. […] The cdk7tide peptide substrate, biotin-[…] -OH, is a custom synthesis purchased from the Tufts University Core Facility. The final concentration of cdk7tide peptide substrate is 200 nM. […] Phospho-Rpb1 CTD (ser2/5) substrate antibody is purchased from Cell Signaling Technology. The final concentration of antibody is 0.67 ug/ml. The Alpha Screen Protein A detection kit containing donor and acceptor beads is purchased from PerkinElmer Life Sciences. The final concentration of both donor and acceptor beads is 15 ug/ml. Alpha Screen is used for detection. […] The biotinylated-cdk7tide peptide substrate is bound to the streptavidin coated donor bead. The antibody is bound to the protein A coated acceptor bead. The antibody will bind to the phosphorylated form of the biotinylated-cdk7tide peptide substrate, bringing the donor and acceptor beads into close proximity. Laser irradiation of the donor bead at 680 nm generates a flow of short-lived singlet oxygen molecules. When the donor and acceptor beads are in close proximity, the reactive oxygen generated by the irradiation of the donor beads initiates a luminescence/fluorescence cascade in the acceptor beads. This process leads to a highly amplified signal with output in the 530-620 nm range. Assays are carried out in 50 mM Hepes, pH=7.5, 10 mM MgCl2, 0.1% Bovine Serum Albumin, 0.01% Tween-20, 1 mM Dithiothreitol, 2.5% Dimethyl Sulfoxide. Stop and detection steps are combined using 50 mM Hepes, pH=7.5, 18 mM EDTA, 0.1% Bovine Serum Albumin, 0.01% Tween-20.

Cdk9/cyclinT1, sequence (P50750 whole entry): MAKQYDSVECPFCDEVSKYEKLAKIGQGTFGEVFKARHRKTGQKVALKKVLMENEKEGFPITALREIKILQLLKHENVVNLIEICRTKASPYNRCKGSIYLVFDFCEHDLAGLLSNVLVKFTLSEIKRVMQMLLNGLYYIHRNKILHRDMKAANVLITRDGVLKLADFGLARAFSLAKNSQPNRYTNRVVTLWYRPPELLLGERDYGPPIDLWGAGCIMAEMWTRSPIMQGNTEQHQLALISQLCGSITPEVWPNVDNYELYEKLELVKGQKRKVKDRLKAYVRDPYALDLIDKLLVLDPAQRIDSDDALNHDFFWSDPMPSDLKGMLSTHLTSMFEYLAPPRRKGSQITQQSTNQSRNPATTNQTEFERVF
Cdk9/cyclinT1, sequence (O60563 whole entry partner): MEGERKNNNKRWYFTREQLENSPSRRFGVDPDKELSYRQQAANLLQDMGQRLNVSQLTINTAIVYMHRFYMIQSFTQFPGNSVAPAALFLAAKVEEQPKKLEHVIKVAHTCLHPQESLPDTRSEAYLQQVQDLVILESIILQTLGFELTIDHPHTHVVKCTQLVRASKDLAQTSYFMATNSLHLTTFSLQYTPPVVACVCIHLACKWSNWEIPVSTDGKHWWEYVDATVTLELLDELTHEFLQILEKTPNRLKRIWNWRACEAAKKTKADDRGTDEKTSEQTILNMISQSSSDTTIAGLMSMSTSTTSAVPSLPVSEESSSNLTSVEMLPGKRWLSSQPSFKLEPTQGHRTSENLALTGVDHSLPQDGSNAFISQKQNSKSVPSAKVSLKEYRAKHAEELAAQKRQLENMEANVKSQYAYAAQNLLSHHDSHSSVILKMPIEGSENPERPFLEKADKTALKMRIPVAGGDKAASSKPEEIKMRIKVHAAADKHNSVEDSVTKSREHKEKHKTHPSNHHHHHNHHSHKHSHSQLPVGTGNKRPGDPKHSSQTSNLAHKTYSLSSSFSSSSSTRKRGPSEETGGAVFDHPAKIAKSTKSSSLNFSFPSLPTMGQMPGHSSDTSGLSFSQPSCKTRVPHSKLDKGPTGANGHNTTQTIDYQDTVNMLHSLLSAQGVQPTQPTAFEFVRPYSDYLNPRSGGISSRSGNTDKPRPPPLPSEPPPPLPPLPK

Compound | pIC50
N#CC1(CNc2cccc(-c3cc(N[C@H]4CC[C@H](NC[C@@H](O)CF)CC4)ncc3Cl)n2)CCOCC1 [Compound 544] | 9.70
COC[C@@H](C)N[C@H]1CC[C@H](Nc2cc(-c3cccc(NCC4(C#N)CC4)n3)c(F)cn2)CC1 [Compound 551] | 10.12 and 9.55 and 10.03
COC[C@@H](C)N[C@H]1CC[C@H](Nc2cc(-c3cncc(OCC4(C#N)CCOCC4)n3)c(Cl)cn2)CC1 [Compound 552] | 9.07 and 8.98 and 9.42
COC[C@@H](C)N[C@H]1CC[C@H](Nc2cc(-c3cncc(OCC4(C#N)CCOCC4)n3)c(F)cn2)CC1 [Compound 553] | 9.14 and 9.58 and 9.24
COCCN[C@H]1CC[C@H](Nc2cc(-c3cncc(OCC4(C#N)CCOCC4)n3)c(F)cn2)CC1 [Compound 559] | 9.69
N#CC1(COc2cncc(-c3cc(N[C@H]4CC[C@H](NCCC(F)(F)F)CC4)ncc3Cl)n2)CCOCC1 [Compound 562] | 9.49
COCCN[C@H]1CC[C@H](Nc2cc(-c3ccc(F)c(NCC4(C)CCOCC4)n3)c(Cl)cn2)CC1 [Compound 565] | 9.36 and 9.65
COC[C@H](C)N[C@H]1CC[C@H](Nc2cc(-c3cccc(NCC4(C#N)CC4)n3)c(F)cn2)CC1 [Compound 566] | 9.10 and 9.07
N#CC1(CNc2cccc(-c3cc(N[C@H]4CC[C@H](O)CC4)ncc3F)n2)CCOCC1 [Compound 576] | 9.86
C[C@@](O)(CN[C@H]1CC[C@H](Nc2cc(-c3cccc(NCC4(C#N)CCOCC4)n3)c(Cl)cn2)CC1)C(F)(F)F [Compound 577] | 9.36 and 9.59
C[C@](O)(CN[C@H]1CC[C@H](Nc2cc(-c3cccc(NCC4(C#N)CCOCC4)n3)c(Cl)cn2)CC1)C(F)(F)F [Compound 578] | 9.30 and 9.51
C[C@](O)(CN[C@H]1CC[C@H](Nc2cc(-c3cccc(NCC4(C#N)CCOCC4)n3)ccn2)CC1)C(F)(F)F [Compound 579] | 9.04
C[C@@](O)(CN[C@H]1CC[C@H](Nc2cc(-c3cccc(NCC4(C#N)CCOCC4)n3)ccn2)CC1)C(F)(F)F [Compound 580] | 9.01

Same assay, conditions: neutral species; individual determinations; read-out: CDK9_cyclinT1_AS2_IC50

Compound | pIC50
N#CC1(CNc2cccc(-c3cc(N[C@H]4CC[C@H](N5CC6(COC6)C5)CC4)ncc3Cl)n2)CCOCC1 [Compound 546] | 8.85 and 8.97 and 8.95
N#CC1(CNc2cccc(-c3cc(N[C@H]4CC[C@@H](N5CC6(COC6)C5)CC4)ncc3Cl)n2)CCOCC1 [Compound 547] | 8.21
N#CC1(COc2cncc(-c3cc(N[C@H]4CC[C@H](N5CCCOCC5)CC4)ncc3Cl)n2)CCOCC1 [Compound 548] | 9.00
N#CC1(COc2cncc(-c3cc(N[C@H]4CC[C@@H](N5CCCOCC5)CC4)ncc3Cl)n2)CCOCC1 [Compound 549] | 7.26
N#CC1(COc2cncc(-c3cc(N[C@H]4CC[C@H](NCCF)CC4)ncc3Cl)n2)CCOCC1 [Compound 550] | 9.37
COC[C@@H](C)N[C@H]1CC[C@H](Nc2cc(-c3cccc(NCC4(C#N)CC4)n3)c(F)cn2)CC1 [Compound 551] | 9.53 and 9.52 and 9.18
COC[C@@H](C)N[C@H]1CC[C@H](Nc2cc(-c3cncc(OCC4(C#N)CCOCC4)n3)c(Cl)cn2)CC1 [Compound 552] | 8.95
COC[C@@H](C)N[C@H]1CC[C@H](Nc2cc(-c3cncc(OCC4(C#N)CCOCC4)n3)c(F)cn2)CC1 [Compound 553] | 9.18
C[C@H](O)CN[C@H]1CC[C@H](Nc2cc(-c3cccc(NCC4(C#N)CCOCC4)n3)c(Cl)cn2)CC1 [Compound 554] | 9.40
COCCN(C1CC1)[C@H]1CC[C@H](Nc2cc(-c3cncc(OCC4(C#N)CCOCC4)n3)c(F)cn2)CC1 [Compound 555] | 8.67
COCCN[C@H]1CC[C@H](Nc2cc(-c3cncc(OCC4(C#N)CC4)n3)c(F)cn2)CC1 [Compound 556] | 9.20
COC[C@@H](C)N[C@H]1CC[C@H](Nc2cc(-c3cncc(OCC4(C#N)CC4)n3)c(F)cn2)CC1 [Compound 557] | 9.42
COCCN[C@H]1CC[C@H](Nc2cc(-c3cncc(OCC4(C#N)CCOCC4)n3)c(F)cn2)CC1 [Compound 559] | 9.29
N#CC1(CNc2cccc(-c3cc(N[C@H]4CC[C@H](NCC5(O)CC5)CC4)ncc3Cl)n2)CCOCC1 [Compound 560] | 9.32
N#CC1(COc2cncc(-c3cc(N[C@H]4CC[C@H](NCCC(F)(F)F)CC4)ncc3Cl)n2)CCOCC1 [Compound 562] | 9.26
N#CC1(CNc2cccc(-c3cc(N[C@H]4CC[C@H](NC5CC(F)(F)C5)CC4)ncc3Cl)n2)CCOCC1 [Compound 563] | 9.38
N#CC1(CNc2cccc(-c3cc(N[C@H]4CC[C@@H](NC5CC(F)(F)C5)CC4)ncc3Cl)n2)CCOCC1 [Compound 564] | 8.02
COCCN[C@H]1CC[C@H](Nc2cc(-c3ccc(F)c(NCC4(C)CCOCC4)n3)c(Cl)cn2)CC1 [Compound 565] | 9.48 and 9.51
N#CC1(CN[C@H]2CC[C@H](Nc3cc(-c4cncc(OCC5(C#N)CCOCC5)n4)c(Cl)cn3)CC2)CC1 [Compound 567] | 9.12 and 9.55
N#CC1(CNc2cccc(-c3cc(N[C@H]4CC[C@H](N5CCC6(COC6)C5)CC4)ncc3Cl)n2)CCOCC1 [Compound 570] | 8.87

Compound | pIC50
N#CC1(CNc2cccc(-c3cc(N[C@H]4CC[C@H](NCCCO)CC4)ncc3Cl)n2)CCOCC1 [Compound 571] | 9.40
N#CC1(CNc2cccc(-c3cc(N[C@H]4CC[C@H](NCCO)CC4)ncc3Cl)n2)CCOCC1 [Compound 572] | 9.52
N#CC1(CNc2cccc(-c3cc(N[C@H]4CC[C@@H](NCC5(O)CC5)CC4)ncc3Cl)n2)CCOCC1 [Compound 573] | 8.19
N#CC1(COc2cncc(-c3cc(N[C@H]4CC[C@H](NC[C@H](O)C(F)(F)F)CC4)ncc3Cl)n2)CCOCC1 [Compound 574] | 9.35
N#CC1(COc2cncc(-c3cc(N[C@H]4CC[C@H](NC[C@@H](O)C(F)(F)F)CC4)ncc3Cl)n2)CCOCC1 [Compound 575] | 9.67
COC[C@@H](C)N(O)[C@H]1CC[C@H](Nc2cc(-c3cncc(OCC4(C#N)CCOCC4)n3)c(Cl)cn2)CC1 [Compound 581] | 9.00
C[C@@](O)(CN[C@H]1CC[C@H](Nc2cc(-c3cncc(OCC4(C#N)CCOCC4)n3)c(Cl)cn2)CC1)C(F)(F)F [Compound 582] | 9.00
N#CC1(COc2cncc(-c3cc(NC4CCCNCC4)ncc3Cl)n2)CCOCC1 (centres unmarked) [Compound 583] | 7.96
C[C@H](CO)N[C@H]1CC[C@H](Nc2cc(-c3cccc(NCC4(C#N)CCOCC4)n3)c(Cl)cn2)CC1 [Compound 584] | > 9.00
C[C@@H](O)CN[C@H]1CC[C@H](Nc2cc(-c3cccc(NCC4(C#N)CCOCC4)n3)c(Cl)cn2)CC1 [Compound 585] | > 9.00
COC[C@H](C)N[C@H]1CC[C@H](Nc2cc(-c3cncc(OCC4(C#N)CCOCC4)n3)c(Cl)cn2)CC1 [Compound 586] | 9.00
COC[C@H](C)N[C@H]1CC[C@H](Nc2cc(-c3cccc(NCC4(C#N)CC4)n3)c(F)cn2)CC1 [Compound 587] | 9.00
N#CC1(CNc2cccc(-c3cc(N[C@H]4CC[C@H](N[C@H]5CCCC[C@@H]5O)CC4)ncc3Cl)n2)CCOCC1 [Compound 588] | > 9.00
COC[C@H](C)N[C@H]1CC[C@H](Nc2cc(-c3cncc(OCC4(C#N)CCOCC4)n3)c(F)cn2)CC1 [Compound 589] | 9.00
C[C@H](CO)N[C@H]1CC[C@H](Nc2cc(-c3cncc(OCC4(C#N)CCOCC4)n3)c(Cl)cn2)CC1 [Compound 590] | 8.30
C[C@H](CO)N[C@H]1CC[C@@H](Nc2cc(-c3cncc(OCC4(C#N)CCOCC4)n3)c(Cl)cn2)CC1 [Compound 591] | > 9.00
C[C@H](CO)N[C@H]1CC[C@H](Nc2cc(-c3cncc(OCC4(C#N)CCOCC4)n3)c(F)cn2)CC1 [Compound 592] | > 9.00
C[C@H](CO)N[C@H]1CC[C@@H](Nc2cc(-c3cncc(OCC4(C#N)CCOCC4)n3)c(F)cn2)CC1 [Compound 593] | 7.60
[2H]C(C)(COC)N[C@H]1CC[C@H](Nc2cc(-c3cccc(NCC4(C#N)CCOCC4)n3)c(Cl)cn2)CC1 (some centres unmarked) [Compound 594] | > 9.00
[2H]C([2H])([2H])OCC(C)N[C@H]1CC[C@H](Nc2cc(-c3cncc(OCC4(C#N)CCOCC4)n3)c(Cl)cn2)CC1 (some centres unmarked) [Compound 595] | > 9.00
